Read-outs that look alike come from different tables or passages of the source.

Assay [1] has as its target T1, thrombin (Homo sapiens, UniProt P00734).
T1 construct: purchased MilliporeSigma
Set-up: method as in Shapira et al. 2022 Nature. The following applies: ref Shapira et al. 2022 Nature; cited from earlier work.

The target of assay [2] is T2, WT TMPRSS13 (Homo sapiens, UniProt Q9BYE2).
T2 construct: the full length TMPRSS13 (TMPRSS13-WT); expressed in transfected cells; host or cells: Vero C1008 (Vero E6) cells
T2 sequence (Q9BYE2 326-567 isoform Q9BYE2-6 limits assumed): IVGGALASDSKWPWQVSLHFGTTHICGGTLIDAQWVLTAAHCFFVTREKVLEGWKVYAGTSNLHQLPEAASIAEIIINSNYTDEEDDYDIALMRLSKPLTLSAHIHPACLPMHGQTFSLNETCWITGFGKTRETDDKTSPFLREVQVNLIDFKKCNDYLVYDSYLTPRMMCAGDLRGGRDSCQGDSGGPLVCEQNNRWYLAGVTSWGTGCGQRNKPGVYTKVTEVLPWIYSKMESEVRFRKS
Kind of assay: In cellulo inhibitory activity in TMPRSS13-transfected Vero cells. In kind it is cell-based. The following applies: 24 h; for remaining activity at 10 µM: 10 µM compound, media, relative to DMSO, read-out: residual activity of TMPRSS13; for IC50: Boc-RVRR-AMC, read-out: IC50 in cellulo TMPRSS13 inhibition. Here is the method:
Vero C1008 cells were grown in 12-well plates (200K cells per well) and transfected for 24 h via Lipofectamine 3000 (Life Technologies) with one of the following plasmids: pcDNA3.1 (empty vector, EV), pcDNA3.1-TMPRSS13 WT or pcDNA3.1-TMPRSS13-AFAAS-6His. The cells were then washed 2 times with PBS before HCell-100 medium (Wisent) containing the indicated concentrations of each compound or the control condition (0.01% DMSO) was added. After 24 h of incubation with the compounds, the medium was harvested, and 90 μL was placed in 96-well plate wells with 10 µL of 200 μM Boc-RVRR-AMC. Fluorescence was acquired at room temperature in an FLx800 TBE microplate reader, with excitation at 360 nm and emission at 460 nm. The background was then subtracted by removing the signal recorded with the cells transfected with the empty vector (pcDNA3.1). Proteolytic activity results are represented as a percentage of the DMSO-treated condition. The IC50 was calculated via nonlinear regression of the compound concentration relative to the velocity.

Assay [3] deals with T3, matriptase (Homo sapiens, UniProt Q9Y5Y6).
T3 construct: made in house
T3 sequence (Q9Y5Y6 1-855): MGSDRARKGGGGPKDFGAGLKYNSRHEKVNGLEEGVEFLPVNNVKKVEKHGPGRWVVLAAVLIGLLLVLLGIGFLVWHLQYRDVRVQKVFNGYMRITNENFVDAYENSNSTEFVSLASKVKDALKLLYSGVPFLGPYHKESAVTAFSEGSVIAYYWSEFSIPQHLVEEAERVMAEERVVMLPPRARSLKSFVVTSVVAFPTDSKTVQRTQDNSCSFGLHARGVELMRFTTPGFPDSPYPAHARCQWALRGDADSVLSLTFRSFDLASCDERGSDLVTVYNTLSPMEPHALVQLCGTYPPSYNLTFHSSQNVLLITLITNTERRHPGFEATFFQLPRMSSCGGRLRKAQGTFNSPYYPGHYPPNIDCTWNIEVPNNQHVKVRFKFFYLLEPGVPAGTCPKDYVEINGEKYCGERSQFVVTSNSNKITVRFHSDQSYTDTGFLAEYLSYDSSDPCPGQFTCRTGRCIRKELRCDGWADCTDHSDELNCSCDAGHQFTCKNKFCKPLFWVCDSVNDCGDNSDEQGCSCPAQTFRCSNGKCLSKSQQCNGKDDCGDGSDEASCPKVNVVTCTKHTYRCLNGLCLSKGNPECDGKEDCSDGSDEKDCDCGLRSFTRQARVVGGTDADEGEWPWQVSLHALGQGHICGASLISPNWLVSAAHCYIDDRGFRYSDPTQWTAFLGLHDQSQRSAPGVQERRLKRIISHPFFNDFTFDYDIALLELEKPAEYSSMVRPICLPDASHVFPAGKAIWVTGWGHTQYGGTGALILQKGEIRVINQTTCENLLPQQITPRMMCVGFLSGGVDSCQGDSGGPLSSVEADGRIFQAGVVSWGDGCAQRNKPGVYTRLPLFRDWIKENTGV
Set-up: method as in Shapira et al. 2022 Nature. The conditions noted are these: ref Shapira et al. 2022 Nature; cited from earlier work.

The target of assay [4] is T4, furin (Homo sapiens, UniProt P09958).
T4 construct: purchased R&D Systems
T4 sequence (P09958 108-794): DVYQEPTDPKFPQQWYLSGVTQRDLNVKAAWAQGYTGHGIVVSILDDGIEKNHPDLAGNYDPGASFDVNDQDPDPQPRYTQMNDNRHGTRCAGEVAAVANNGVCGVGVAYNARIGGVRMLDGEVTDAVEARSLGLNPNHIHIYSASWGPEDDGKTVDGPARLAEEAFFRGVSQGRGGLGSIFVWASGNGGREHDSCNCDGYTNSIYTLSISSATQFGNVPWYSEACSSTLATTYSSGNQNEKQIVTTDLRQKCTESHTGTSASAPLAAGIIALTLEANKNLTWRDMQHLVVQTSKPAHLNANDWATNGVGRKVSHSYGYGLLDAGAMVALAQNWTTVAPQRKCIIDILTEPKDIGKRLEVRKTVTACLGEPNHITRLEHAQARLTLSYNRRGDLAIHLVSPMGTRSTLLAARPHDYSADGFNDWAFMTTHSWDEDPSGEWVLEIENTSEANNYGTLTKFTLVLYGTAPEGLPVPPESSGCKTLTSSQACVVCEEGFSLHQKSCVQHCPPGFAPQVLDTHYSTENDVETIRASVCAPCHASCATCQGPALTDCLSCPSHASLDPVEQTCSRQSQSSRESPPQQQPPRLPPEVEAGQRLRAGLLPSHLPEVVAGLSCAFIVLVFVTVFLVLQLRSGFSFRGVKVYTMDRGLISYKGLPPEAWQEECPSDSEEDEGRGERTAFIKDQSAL
Set-up: method as in Shapira et al. 2022 Nature. The following applies: ref Shapira et al. 2022 Nature; cited from earlier work.

For assay [5], the target named is T3, matriptase. In words: In vitro inhibition assay, matriptase, Boc-QAR-AMC. It counts as biochemical. The following applies: Morrison Ki equation, tight-binding. Here is the method: (§1) Recombinant TMPRSS13-AFAAS-6His (this study) and matriptase[34] were expressed and purified as described. Recombinant human furin, Factor Xa (R&D Systems) and thrombin (MilliporeSigma) were obtained from commercial sources. Assays were performed in a buffer composed of 50 mM HEPES pH 7.4, 1 mM β-mercaptoethanol, 1 mM CaCl2 and 500 μg/ml BSA for furin and 50 mM HEPES pH 7.4, 150 mM NaCl and 0.1% BSA for other proteases. Assays were performed at room temperature using fluorogenic substrates (Boc-RVRR-AMC for furin and TMPRSS13, Boc-QAR-AMC for other proteases). The enzymatic activity was measured via fluorescence (excitation at 360 nm and emission at 460 nm) at room temperature using an HTX Synergy microplate reader (Agilent). Kis for TMPRSS13 and Factor Xa (FXa) were derived from IC50 dose–response curves using the Cheng-Prusoff equation[35] for reversible competitive inhibitors. For matripase, a plot of the enzyme velocity as a function of the inhibitor concentration was fitted with nonlinear regression analysis via the Morrison Ki equation[36] for competitive tight-binding inhibitors.

The target of assay [6] is T1, thrombin. In words: In vitro inhibition assay, thrombin, Boc-QAR-AMC. In kind it is biochemical. Here is the method:
as §1

Assay [7] addresses T4, furin. Kind of assay: In vitro inhibition assay, furin, Boc-RVRR-AMC. It counts as biochemical. Here is the method: as §1

On to `N=C(N)NCCCCC(=O)N[C@@H](CCC(N)=O)C(=O)N[C@@H](Cc1ccccc1)C(=O)N[C@@H](CCCNC(=N)N)C(=O)c1nc2ccccc2s1` [Compound N-0130, (H)-RQFR-Kbt], for which the Ki in assay [1] is 8230 ± 1550 nM; in assay [3], 0.13 ± 0.03 nM; in assay [4], over 10000 nM. Besides, the remaining activity at 10 µM in assay [2] was 18.4%. In assay [2], the concentration for half-maximal inhibition (IC50) turned out to be 192 nM. For the same molecule, the “Ki Matriptase” value in assay [3] is “subnanomolar”.
With `N=C(N)NCCCCC(=O)N[C@@H](CCC(N)=O)C(=O)N[C@@H](CCc1ccccc1)C(=O)N[C@@H](CCCNC(=N)N)C(=O)c1nc2ccccc2s1` [Compound N-0430, (H)-RQhFR-Kbt], the Ki is 0.28 ± 0.05 nM in assay [5], over 10000 nM in assay [6] and over 10000 nM in assay [7]. The “Ki Matriptase” value in assay [5] is “subnanomolar”. The half-inhibitory concentration (IC50) in assay [2] was 53 nM. The remaining activity at 10 µM in assay [2] (Vero) was determined as 9%.
